Earlier results, collected in US20180147234A1, “COMPOSITIONS AND METHODS FOR TREATMENT OF FIBROMYALGIA” (Luitpold Pharmaceuticals, Inc., priority 2015, published 2018).

Details: in vivo

## polyglucose sorbitol carboxymethyl ether-coated non-stoichiometric magnetite [ferumoxytol]
  Blood half-life: 10 to 14 h
